Where two headings read alike, the source gives them in different places. Peptide text beside a SMILES is read from it.
Assays:
Format in all cases: cell-based, human
[1] = test system: various cancer cell lines; experiment: MTT cytotoxicity assay, various cancer cell lines; settings: Fig. 1a
Source text: Eleven human cancer cell lines (including MCF-7 breast carcinoma, Bcap-37 breast carcinoma, MDA-MB-231 breast adenocarcinoma, HeLa cervical carcinoma, BGC-823 gastric carcinoma, A375 melanoma, NCI-H446 small cell lung carcinoma, HO-8910 ovarian carcinoma, SMMC-7721 hepatocellular carcinoma, LK-2 lung squamous cells carcinoma, and BEL-7402 hepatocellular carcinoma) were obtained from the CBCAS (Cell Bank of the Chinese Academy of Sciences, Shanghai, China). Human HaCaT keratinocytes were obtained from KeyGEN Biotech (Nanjing, China). Cells were routinely cultured in RPMI 1640 or L15 or DMEM containing 10% neonatal bovine serum (NBS) or fetal bovine serum (FBS), 1% l-glutamine, 1% sodium pyruvate, 50 U/mL penicillin and 50 μg/mL streptomycin. The cells were maintained at 37 °C in a humidified atmosphere of 5% CO2.
Cell viability was detected by MTT assay. The cells were seeded at 5 × 10^3 cells/well in 96-well plates 24 h before the peptide treatment. After 1, 6, 24, or 48 h of incubation with various concentrations of peptides (20–100 µM), 10 μL of the 5 mg/mL MTT solution was added to each well and incubated for additional 4 h. The purple-blue MTT formazan precipitate was dissolved in 150 μL of DMSO. The absorbance was determined using a microplate reader at 490 nm. […] The data were expressed as a percentage of the inhibition rate for the viable cells. […]

MCF-7 cells [2] = test system: MCF-7 cells
Method: (§1) Cell viability was detected by MTT assay. The cells were seeded at 5 × 10^3 cells/well in 96-well plates 24 h before the peptide treatment. After 1, 6, 24, or 48 h of incubation with various concentrations of peptides (20–100 µM), 10 μL of the 5 mg/mL MTT solution was added to each well and incubated for additional 4 h. The purple-blue MTT formazan precipitate was dissolved in 150 μL of DMSO. The absorbance was determined using a microplate reader at 490 nm. The experiments were performed in triplicate. The data were expressed as a percentage of the inhibition rate for the viable cells. For the thermo-sensitivity test, MCF-7 cells were treated with L-K6 at 4 °C or 37 °C for 30 min and then subjected to the MTT assay. For energy-dependent assay, the L-K6-treated MCF-7 cells were pre-incubated with 40 μM NaN3 for 30 min[39] and then subjected to the MTT assay. All experiments had been performed in triplicate.

HaCaT cells [3] = experiment: MTT cytotoxicity assay, non-cancerous HaCaT cells; settings: 1-hour peptide exposure
Method: as §1

MCF-7 cells [4] = experiment: Cellular uptake by confocal microscopy, MCF-7 cells; settings: FITC-labeled L-K6, confocal microscopy, after 5 min of peptide exposure
Method: (§2) MCF-7 or HaCaT cells were incubated with various concentrations of FITC-labeled L-K6 for 5, 10 or 60 min. Myelin and other lipophilic areas on cell membrane were stained with the red-orange fluorescent tracker DiI. The FITC-labeled peptides were traced and recorded at each time point using confocal microscopy.

HaCaT cells [5] = experiment: Cellular uptake by confocal microscopy, HaCaT cells; settings: FITC-labeled L-K6, confocal microscopy, 1-hour exposure
Method: as §2

| Structure (SMILES) | Cytotoxicity on cancer cell lines relative to L-K6 (MTT) [1] | IC50 (MCF-7 cells [2]; 1 h) | IC50 (MCF-7 cells [2]; 6 h) | IC50 (MCF-7 cells [2]; 24 h) | IC50 (MCF-7 cells [2]; 48 h) | Toxicity against normal HaCaT cells (MTT) (HaCaT cells [3]) | Cellular uptake into MCF-7 cells (MCF-7 cells [4]) | Cellular uptake into HaCaT cells (HaCaT cells [5]) |
| --- | --- | --- | --- | --- | --- | --- | --- | --- |
| CC[C@H](C)[C@H](N)C(=O)N[C@@H](CCCCN)C(=O)N[C@@H](CCCCN)C(=O)N[C@H](C(=O)N[C@H](C(=O)N[C@@H](CO)C(=O)N[C@@H](CCCCN)C(=O)N[C@H](C(=O)N[C@@H](CCCCN)C(=O)N[C@@H](CCCCN)C(=O)N[C@@H](CC(C)C)C(=O)N[C@@H](CC(C)C)C(=O)N[C@@H](CCCCN)C(N)=O)[C@@H](C)CC)C(C)C)[C@@H](C)CC [L-K6 V1] (H-IKKIVSKIKKLLK-NH2) | dramatically weakened this cytotoxicity | – | – | – | – | – | – | – |
| CC[C@H](C)[C@H](N)C(=O)N[C@@H](CCCCN)C(=O)N[C@@H](CCCCN)C(=O)N[C@H](C(=O)N[C@@H](CC(C)C)C(=O)N[C@@H](CO)C(=O)N[C@@H](CCCCN)C(=O)N[C@H](C(=O)N[C@@H](CCCCN)C(=O)N[C@@H](CCCCN)C(=O)N[C@@H](CC(C)C)C(=O)N[C@@H](CC(C)C)C(=O)N[C@@H](CCCCN)C(N)=O)[C@@H](C)CC)[C@@H](C)CC [L-K6] (H-IKKILSKIKKLLK-NH2) | – | 38 µM | 34 µM | 31 µM | 23 µM | minimum toxicity | rapidly internalize into cells | negligible cellular uptake |
| CC[C@H](C)[C@H](N)C(=O)N[C@@H](CCCCN)C(=O)N[C@@H](CCCCN)C(=O)N[C@H](C(=O)N[C@H](C(=O)N[C@@H](CO)C(=O)N[C@@H](CCCCN)C(=O)N[C@H](C(=O)N[C@@H](CCCCN)C(=O)N[C@@H](CCCCN)C(=O)N[C@@H](CC(C)C)C(=O)N[C@@H](CC(C)C)C(N)=O)[C@@H](C)CC)C(C)C)[C@@H](C)CC [L-K5 V1] (H-IKKIVSKIKKLL-NH2) | dramatically weakened this cytotoxicity | – | – | – | – | – | – | – |

Reference: PMC5557901, “Cell surface binding, uptaking and anticancer activity of L-K6, a lysine/leucine-rich peptide, on human breast cancer MCF-7 cells” (Scientific Reports, 2017)
